{
  "source": "patent US20240122930A1",
  "about": "“INTEGRIN INHIBITORS AND USES THEREOF IN COMBINATION WITH OTHER AGENTS” (Pliant Therapeutics, Inc., priority 2022, published 2024)",
  "key": {"[1]": {"test_system": "lung Col1a1 expression", "experiment": "Precision cut lung slices, chronic bleomycin exposure, Col1a1 expression", "format": "cell-based, mice (C57BL/6)", "details": "chronic bleomycin PCLS, 7 days culture", "method": "Mice (C57BL/6) were administered 3 U/kg of bleomycin (Teva Pharmaceuticals; North Wales, PA) on Day 0 and 1 U/kg of bleomycin on days 14, 28, 42 and 56 via oropharyngeal aspiration while under anesthesia. At day 70, 14 days after the final bleomycin insult, precision cut lung slices were obtained. […] The lobes were then subjected to precision slicing to obtain samples for culture using a microtome (Compresstome VF-300-OZ, Precisionary; Greenville, NC). Individual slices were distributed in a multiwell culture plate and cultured for 7 days under control (DMSO) and test compound conditions. The viability of the slices over the course of culturing was confirmed by WST-1 assay of mitochondrial activity. […] Compound 5; and the small molecule ALK5 inhibitor. […] Compound 5 was run at approximate IC50 for inhibition of TGF-beta activation by αVβ6."}, "[2]": {"test_system": "COL1A1 expression", "experiment": "Precision cut lung slices from human IPF explants, COL1A1 expression", "format": "cell-based", "details": "human IPF PCLS; for expression of COL1A1: 7 days, treatment alone: nintedanib 75 nM, pirfenidone 50 μM", "description": "Explanted lung tissue was obtained from human IPF subjects and inflated with agarose as described in the preceding examples. Biopsy cores were obtained from the agarose-inflated lung tissue. The biopsy cores were subjected to precision slicing to obtain several hundred μm thick. Individual slices were distributed in a multiwell culture plate and cultured for […] under control (DMSO) and test compound conditions. The viability of the slices over the course of culturing was confirmed by WST-1 assay of mitochondrial activity.\nPCLS from 5-7 idiopathic pulmonary fibrosis (IPF) lung tissue samples were cultured for seven days with one of: DMSO; Compound 5 at 200 nM; nintedanib at 75 nM; pirfenidone at 50 μM; a combination of Compound 5 at 200 nM and nintedanib at 75 nM; a combination of Compound 5 at 200 nM and pirfenidone at 50 μM; or an ALK5 inhibitor at 1 μM. […] FIG. 6D is a bar graph showing relative expression of COL1A1 in precision cut lung slices (PCLS) from idiopathic pulmonary fibrosis (IPF) lung tissue upon exposure to Compound 5, clinical standard of care compounds nintedanib (Nin) and pirfenidone (Pirf), and an ALK5 inhibitor, all versus DMSO control.\nPCLS from a single IPF lung tissue sample were cultured for seven days with Compound 5 at concentrations of 200 pM, 2 nM, 60 nM, 200 nM, and 1 μM, along with 0.1% DMSO control and an ALK5 inhibitor at 1 μM. […] COL1A1 expression is also graphed for the PCLS in the presence of 0.1% DMSO control, and an ALK5 inhibitor at 1 μM."}, "[3]": {"test_system": "Type I Collagen gene Col1a1 expression", "experiment": "Precision cut lung slices, acute bleomycin exposure, Col1a1 expression", "format": "cell-based, mice (C57BL/6)", "details": "acute bleomycin PCLS, 3 days culture; integrin inhibitors at IC50 for TGF-beta activation, pan-αV and ALK5 inhibitors at 10× IC50", "protocol": "Mice (C57BL/6) were administered 3 U/kg of bleomycin (Teva Pharmaceuticals; North Wales, PA) on day 0 via oropharyngeal aspiration while under anesthesia. On day 14, precision cut lung slices were obtained. Following euthanization, 2% low gelling temp agarose was injected into the mouse lungs via the trachea. […] The lobes were then subjected to precision slicing to obtain samples for culture using a microtome (Compresstome VF-300-OZ, Precisionary; Greenville, NC). Individual slices were distributed in a multiwell culture plate and cultured for 3 days under control (DMSO) and test compound conditions. The viability of the slices over the course of culturing was confirmed by WST-1 assay of mitochondrial activity."}, "[4]": {"test_system": "lung Col1a1 expression", "experiment": "Precision cut lung slices, chronic bleomycin exposure, versus and with nintedanib and pirfenidone", "format": "cell-based, mice (C57BL/6)", "details": "chronic bleomycin PCLS, 7 days culture, single agents", "method": "Mice (C57BL/6) were administered 3 U/kg of bleomycin (Teva Pharmaceuticals; North Wales, PA) on Day 0 and 1 U/kg of bleomycin on days 14, 28, 42 and 56 via oropharyngeal aspiration while under anesthesia. At day 70, 14 days following the final bleomycin insult, precision cut lung slices were obtained. […] The lobes were then subjected to precision slicing to obtain samples for culture using a microtome (Compresstome VF-300-OZ, Precisionary; Greenville, NC). Individual slices were distributed in a multiwell culture plate and cultured for 7 days under control (DMSO) and test compound conditions. The viability of the slices over the course of culturing was confirmed by WST-1 assay of mitochondrial activity. During the culture period, slices in the control group were treated with DMSO and slices in the test group were treated with a DMSO solution of one of: […]"}, "[5]": {"molecular_target": "recombinant human integrin αVβ6 (Homo sapiens, UniProt P06756+P18564)", "sequence (P06756 31-992 limits assumed)": "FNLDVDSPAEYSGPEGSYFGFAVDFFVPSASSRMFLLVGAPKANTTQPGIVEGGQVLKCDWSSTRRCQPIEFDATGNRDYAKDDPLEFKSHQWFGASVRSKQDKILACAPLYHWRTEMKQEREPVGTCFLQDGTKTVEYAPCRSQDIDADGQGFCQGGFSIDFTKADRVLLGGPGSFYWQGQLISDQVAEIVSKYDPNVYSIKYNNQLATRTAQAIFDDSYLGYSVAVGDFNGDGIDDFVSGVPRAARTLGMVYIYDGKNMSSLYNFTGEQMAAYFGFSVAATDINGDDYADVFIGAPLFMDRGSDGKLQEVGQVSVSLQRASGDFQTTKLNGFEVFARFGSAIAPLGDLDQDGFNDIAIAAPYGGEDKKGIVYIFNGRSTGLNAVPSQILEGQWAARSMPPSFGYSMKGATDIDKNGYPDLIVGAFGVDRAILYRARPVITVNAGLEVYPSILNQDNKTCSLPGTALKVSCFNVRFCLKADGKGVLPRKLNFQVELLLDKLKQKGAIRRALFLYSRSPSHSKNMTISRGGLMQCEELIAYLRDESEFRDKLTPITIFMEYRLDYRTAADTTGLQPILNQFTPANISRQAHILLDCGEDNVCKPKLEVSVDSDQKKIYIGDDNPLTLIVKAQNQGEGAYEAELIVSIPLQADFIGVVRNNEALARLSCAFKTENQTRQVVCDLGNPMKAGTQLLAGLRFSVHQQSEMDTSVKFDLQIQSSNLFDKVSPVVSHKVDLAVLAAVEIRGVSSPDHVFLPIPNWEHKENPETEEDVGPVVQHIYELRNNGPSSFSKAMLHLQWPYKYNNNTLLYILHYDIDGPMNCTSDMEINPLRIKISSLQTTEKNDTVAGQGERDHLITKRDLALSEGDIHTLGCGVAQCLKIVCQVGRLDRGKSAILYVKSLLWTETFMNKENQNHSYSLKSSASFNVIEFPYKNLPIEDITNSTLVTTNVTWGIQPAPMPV", "sequence (P18564 22-707 limits assumed)": "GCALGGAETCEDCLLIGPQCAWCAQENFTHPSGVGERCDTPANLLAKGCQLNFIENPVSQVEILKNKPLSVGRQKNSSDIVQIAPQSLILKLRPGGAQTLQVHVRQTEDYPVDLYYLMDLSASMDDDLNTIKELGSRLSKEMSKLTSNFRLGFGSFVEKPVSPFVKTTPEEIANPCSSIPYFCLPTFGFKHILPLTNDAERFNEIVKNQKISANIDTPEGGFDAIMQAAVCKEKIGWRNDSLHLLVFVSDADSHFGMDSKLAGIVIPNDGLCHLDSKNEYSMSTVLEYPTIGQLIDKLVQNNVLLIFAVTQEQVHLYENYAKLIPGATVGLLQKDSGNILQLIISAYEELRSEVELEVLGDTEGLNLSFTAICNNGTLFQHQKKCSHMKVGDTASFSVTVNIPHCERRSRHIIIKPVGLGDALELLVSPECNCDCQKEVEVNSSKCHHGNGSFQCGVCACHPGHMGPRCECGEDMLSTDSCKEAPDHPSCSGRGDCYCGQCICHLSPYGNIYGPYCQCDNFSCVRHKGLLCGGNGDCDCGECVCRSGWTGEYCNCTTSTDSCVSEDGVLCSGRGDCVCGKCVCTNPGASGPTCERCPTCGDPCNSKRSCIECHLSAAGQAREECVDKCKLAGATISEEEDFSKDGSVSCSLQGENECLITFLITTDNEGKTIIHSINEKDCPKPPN", "experiment": "Solid phase integrin αVβ6 binding assay", "details": "TGFβ1 LAP, values presented in four ranges, read-out: αvβ6 Inhibition IC50 (nM)-range", "method": "Microplates were coated with recombinant human integrin αVβ6 (2 μg/mL) in PBS (100 μL/well 250 C, overnight). The coating solution was removed, washed with wash buffer (0.05% Tween 20; 0.5 mM MnCl2; in 1×TBS). The plate was blocked with 200 μL/well of Block Buffer (1% BSA; 5% sucrose; 0.5 mM MnCl2; in 1×TBS) at 370 C for 2 h. Dilutions of testing compounds and recombinant TGFβ1 LAP (0.67 μg/mL) in binding buffer (0.05% BSA; 2.5% sucrose; 0.5 mM MnCl2; in 1×TBS) were added. The plate was incubated for 2 hours at 250 C, washed, and incubated for 1 hour with Biotin-Anti-hLAP. Bound antibody was detected by peroxidase-conjugated streptavidin. The IC50 values for testing compounds were calculated by a four-parameter logistic regression.\nThe compounds tested were compound samples prepared according to procedures described in the Synthetic Examples section, with the stereochemical purity as indicated in the Examples.\nA third series of exemplary compounds was selected for testing in the solid phase integrin αVβ6 binding assay. The compounds tested were compound samples prepared according to procedures described in the Synthetic Examples section, with the stereochemical purity as indicated in the Examples. […] Bound antibody was detected by peroxidase-conjugated streptavidin. The IC50 values for testing compounds were calculated by a four-parameter logistic regression."}, "[6]": {"test_system": "explanted human lung tissue from patients with idiopathic pulmonary fibrosis", "experiment": "Fibrosis-related gene expression (nCounter Fibrosis Panel) in precision cut lung slices", "format": "cell-based", "description": "Briefly, tissue samples from patients with IPF were acquired at the time of lung transplantation. […] Treated slices were lysed in mRNA-compatible buffer for gene expression analysis. For this study, the lysate from n=6 slices per treatment per lung were pooled for analysis using the nCounter Fibrosis Panel (Nanostring) on the nCounter Max analyzer (Nanostring). This commercially available panel of 770 genes includes genes related to initial tissue damage response, chronic inflammation, proliferation of pro-fibrotic cells, and tissue modification leading to fibrotic disease. Technical quality control and normalization of raw Nanostring mRNA count data was performed using an R framework developed by Bhattacharya et al. (Bhattacharya A. et al., Brief Bioinform. 2021 May 20; 22(3):bbaa163; herein incorporated by reference in its entirety). The R packages limma (see URL www.bioconductor.org/packages/release/bioc/html/limma.html, which is incorporated herein by reference in its entirety) and voom (Law, C."}, "[7]": {"test_system": "participants with idiopathic pulmonary fibrosis (IPF)", "details": "FIG. 26, histograms from left to right; from USPI or literature; cited from earlier work"}, "[8]": {"details": "single treatment, adj. p-value <0.05"}},
  "note": "“Also recorded” adds a separate entry of the source.",
  "data": [
    {"smiles": "Cc1cccc(-c2n[nH]cc2-c2ccc(F)c(-c3cnn(CCO)c3)c2)n1", "note": "[small molecule ALK5 inhibitor, 4-[2-Fluoro-5-[3-(6-methyl-2-pyridinyl)-1H-pyrazol-4-yl]phenyl]-1H-pyrazole-1-ethanol, reference compound]", "values": [
      {"measurement": "lung Col1a1 expression, normalized to DMSO control slices", "setting": "[1]", "value": "greatest decrease"},
      {"measurement": "lung Col1a1 expression, normalized to DMSO control slices", "setting": "[2]; 3 days, 3G9 ≥400 ng/mL, Compound 5 179 nM, ALK5 inhibitor 1 μM", "value": "decrease in lung Col1a1 expression"},
      {"measurement": "Type I Collagen gene Col1a1 expression, normalized to DMSO control slices", "setting": "[3]", "value": "greatest decrease"},
      {"measurement": "lung Col1a1 expression vs DMSO vehicle control slices", "setting": "[4]", "value": "substantial, statistically significant (p<0.0001 vs vehicle) decrease"}
    ]},
    {"smiles": "COCCN(CCCCc1ccc2c(n1)NCCC2)CCC(Nc1ncnc2cnccc12)C(=O)O", "note": "(stereo not shown) [Compound 17, 4-((2-methoxyethyl)(4-(5,6,7,8-tetrahydro-1,8-naphthyridin-2-yl)butyl)amino)-2-(pyrido[3,4-d]pyrimidin-4-ylamino)butanoic acid]", "values": [
      {"measurement": "IC50", "setting": "[5]", "value": "< 50", "unit": "nM"}
    ]},
    {"smiles": "Cc1ccc(=O)n(-c2ccccc2)c1", "note": "[pirfenidone, 5-methyl-1phenyl-2-1(H)-pyridone, reference compound]", "values": [
      {"measurement": "expression of COL1A1", "setting": "[2]", "value": "did not significantly reduce"},
      {"measurement": "Genes Down-regulated with Compound 5 and Pirfenidone Alone or in Combination, region F", "setting": "[6]; FIG. 24 Venn region F: altered by Compound 5 or pirfenidone alone, but not by Compound 5 in combination with pirfenidone", "value": "CXCR4; also recorded: PECAM1"},
      {"measurement": "Genes Up-regulated with Compound 5 and Pirfenidone Alone or in Combination, region G", "setting": "[6]; FIG. 24 Venn region G: only altered by pirfenidone in the absence of Compound 5", "value": "COL7A1 and MMP7 and PTGS2"},
      {"measurement": "logFC KNG1", "setting": "[6]; [8]", "value": "−1.1"},
      {"measurement": "lung Col1a1 expression vs DMSO vehicle control slices", "setting": "[4]", "value": "slight increase"}
    ]},
    {"smiles": "[O-][S+]1CCc2nc(N3CCC(c4ncc(Cl)cn4)CC3)nc(NC3(CO)CCC3)c21", "note": "(stereo not shown) [BI 1015550]", "values": [
      {"measurement": "% Incidence of Diarrhea in IPF Clinical Trials", "setting": "[7]", "value": 17, "unit": "%"}
    ]},
    {"smiles": "COC(=O)c1ccc2c(c1)NC(=O)/C2=C(\\Nc1ccc(N(C)C(=O)CN2CCN(C)CC2)cc1)c1ccccc1", "note": "[nintedanib, 3-Z-[1-(4-(N-((4-methyl-piperazin-1-yl)-methylcarbonyl)-N-methyl-amino)-anilino)-1-phenyl-methylene]-6-methoxycarbonyl-2-indolinone, reference compound]", "values": [
      {"measurement": "expression of COL1A1", "setting": "[2]", "value": "did not significantly reduce"},
      {"measurement": "Genes up-regulated, Venn region G (FIG. 24)", "setting": "[6]; IPF precision cut lung slices, 7 days, only altered by nintedanib in the absence of Compound 5", "value": "ACTA2 and CCL19 and COL6A5 and ELN and IGF1 and PYGM"},
      {"measurement": "logFC CYP2J2", "setting": "[6]; [8]", "value": 1.025},
      {"measurement": "lung Col1a1 expression vs DMSO vehicle control slices", "setting": "[4]", "value": "slight increase"}
    ]},
    {"smiles": "CC(C)(C)c1cc(Br)cc([C@H](CC(=O)O)NC(=O)CNC(=O)c2cc(O)cc(NC3=NCC(O)CN3)c2)c1", "note": "(stereo partly drawn) [second pan-αV small molecule inhibitor, (3S)—N-[3-hydroxy-5-[(1,4,5,6-tetrahydro-5-hydroxy-2-pyrimidinyl)amino]benzoyl]glycyl-3-[3-bromo-5-(1,1-dimethylethyl)phenyl]-β-alanine]", "values": [
      {"measurement": "Type I Collagen gene Col1a1 expression, normalized to DMSO control slices", "setting": "[3]", "value": "decreased Type I Collagen gene Col1a1 expression comparably"}
    ]}
  ]
}
